Measured values: patent US5348977A, “Cobalt complexes as anti-cancer agents” (Warner Lambert Company, priority 1991, dated 1994)

Legend:
[1] = system: AA8 cells; assay: Growth inhibition, AA8 cells with lethally-irradiated AA8 feeder cells, aerobic or hypoxic 18 h (Table 3); assay type: cell-based, hamster; conditions: for IC50: AA8, aerobic, 18 h exposure, read-out: IC50 (air) AA8; for HF(air): IC50 (AA8)/IC50 (UV4), aerobic, 1080 min; for IC50 (air)/IC50 (N2) AA8: aerobic IC50 /hypoxic IC50, AA8, 18 h
Procedure: (§1) IC50 Growth inhibition studies were performed as described in detail elsewhere (W. R. Wilson, R. F. Anderson and W. A. Denny. J. Med. Chem., 1989, 32, 23; G. J. Finlay, B. C. Baguley and W. R. Wilson. Anal. Biochem., 1984, 139, 172.), using 200 viable AA8 or 300 viable UV4 cells plus 5000 lethally-irradiated AA8 feeder cells per well in 96-well tissue culture dishes. AA8 and UV4 cells were maintained in logarithmic-phase growth in […] tissue culture flasks with subculture twice weekly by trypsinization. The growth medium was antibiotic-free Alpha MEM with 10% v/v heat-inactivated (56° C., 40 min) fetal calf serum. Doubling times were approximately 14h for AA8 and […] cells.
(§2) air/N2 ratio Ratio of IC50 values after exposure as detailed above under either aerobic (air) or hypoxic (N2) conditions (=aerobic IC50 /hypoxic IC50).
(§3) HF Ratio of IC50 values for a compound after exposure as detailed above against AA8 and UV4 cell lines (=IC50 (AA8)/IC50 (UV4)).

[2] = system: UV4 cells; assay: Growth inhibition, UV4 cells with lethally-irradiated AA8 feeder cells, aerobic or hypoxic 18 h (Table 3); assay type: cell-based; conditions: aerobic IC50 /hypoxic IC50, UV4, 18 h
Procedure: as §1, §2, §3

[3] = Square wave voltammetry, peak potential of cathodic wave; assay type: physicochemical; conditions: vs NHE, platinum disc electrode, 0.15 M (n-Bu4 N)ClO4 in CH2 Cl2, ferrocene internal reference
Description: E1/2 Peak potentials (vs NHE) of cathodic wave, determined by square wave voltammetry at a platinum disc electrode in 0.15 M (n-Bu4 N)ClO4 in CH2 Cl2 with ferrocene as an internal reference.

[4] = system: AA8 cells; assay: Growth inhibition, AA8 cells, aerobic 18 h (Table 2); assay type: cell-based, hamster; conditions: 18 h exposure, 5 determinations
Procedure: (§4) ([Co(Macac)2 (DCE)]ClO4) was prepared as described in Example E. Growth inhibition studies were performed as described in detail by W. R. Wilson, R. F. Anderson and W. A. Denny in J. Med. Chem., 1989 32, 23 and by G. J. Finlay, B. C. Baguley and W. R. Wilson in Anal. Biochem., 1984, 139, 172, herein specifically incorporated by reference. 200 AA8 cells in 96 well tissue culture dishes, 300 UV4 cells in 96 well tissue culture dishes, 300 UV5 cells in 96 well tissue culture dishes, 50 EMT6 cells in 96 well tissue culture dishes, 200 SCC7 cells in 96 well tissue culture dishes, 1500 FME cells in 96 well tissue culture dishes and 500 HCT-8 cells in 96 well tissue culture dishes were prepared. The cells were maintained in logarithmic-phase growth in 25 cm tissue culture flasks with subculture twice weekly by trypsinization. The growth medium was antibiotic-free Alpha MEM with 10% v/v heat-inactivated (56° C., 40 min.) fetal calf serum. Doubling times were approximately 14 hours for AAS, 16 hours for UV4, 16 hours for UV5, 10 hours for EMT6, 14 hours for SCC7, 24 hours for FME and 20 hours for HCT-8 cells. Cultures were tested for mycoplasma contamination frequently, using a cytochemical staining method (I. R. Chen, Exp. Cell Res., 1977, 104, 255). […]

[5] = system: UV4 cells; assay: Growth inhibition, UV4 cells, aerobic 18 h (Table 2); assay type: cell-based; conditions: 18 h exposure, 5 determinations
Procedure: as §4

[6] = system: UV5 cells; assay: Growth inhibition, UV5 cells, aerobic 18 h (Table 2); assay type: cell-based; conditions: 18 h exposure, 1 determination
Procedure: as §4

[7] = system: EMT6 cells; assay: Growth inhibition, EMT6 cells, aerobic 18 h (Table 2); assay type: cell-based; conditions: 18 h exposure, 6 determinations
Procedure: as §4

[8] = system: SCC7 cells; assay: Growth inhibition, SCC7 cells, aerobic 18 h (Table 2); assay type: cell-based; conditions: 18 h exposure, 1 determination
Procedure: as §4

[9] = system: FME cells; assay: Growth inhibition, FME cells, aerobic 18 h (Table 2); assay type: cell-based, human
Procedure: as §4

[10] = system: HCT-8 cells; assay: Growth inhibition, HCT-8 cells, aerobic 18 h (Table 2); assay type: cell-based; conditions: HCT-8 (human colon carcinoma), 18 h exposure, 1 determination
Procedure: as §4

| Substance | IC50 [1] [µM] | HF(air) [1] | IC50 (air)/IC50 (N2) AA8 [1] | IC50 (air)/IC50 (N2) UV4 [2] | E1/2 [3] [mV] | IC50 [4] [µM] | IC50 [5] [nM] | IC50 [6] [nM] | IC50 [7] [nM] | IC50 [8] [nM] | IC50 ([9]; FME (human breast carcinoma), aerobic, 18 h exposure, 6 determinations) [nM] | potency in human lines as compared to AA8 ([9]; FME and HCT-8 versus AA8, aerobic) | IC50 [10] [µM] |
| --- | --- | --- | --- | --- | --- | --- | --- | --- | --- | --- | --- | --- | --- |
| [Co(Clacac)2 (BCE)]Cl [Compound 5] | 26.1 ± 2 | 12.8 ± 3.5 | 0.54 ± 0.12 | 0.92 ± 0.21 | -132 |  |  |  |  |  |  |  |  |
| [Co(Etacac)2 (BCE)]ClO4 [Compound 3] | 139 ± 18.3 | 4.8 ± 1.4 | 0.79 ± 0.24 | 1.77 ± 0.75 | -460 |  |  |  |  |  |  |  |  |
| [Co(Etacac)2 (DCE)]Cl.2H2 O [Compound 8] | 1.56 ± 0.08 | 21.2 ± 4.0 | 1.28 ± 0.23 | 2.14 ± 0.56 | -352 |  |  |  |  |  |  |  |  |
| [Co(Macac)2 (BCE)]ClO4 [Compound 2] | 992 | 3.25 | < 1 |  | -420 |  |  |  |  |  |  |  |  |
| [Co(Macac)2 (DCE)]ClO4 [Compound 7] | 2.91 ± 0.47 | 50.8 ± 3.7 | 2.81 ± 0.16 | 2.03 ± 0.47 | -307 | 4.56 ± 0.62 | 100 ± 20 | 2640 | 1610 ± 210 | 310 | 1300 ± 130 | higher potency (lower IC50) in both of the human lines as compared to AA8 | 4.44 |
| [Co(Pracac)2 (BCE)]ClO4 [Compound 4] | 18.5 ± 3.3 | 3.5 ± 0.7 | 0.85 ± 0.35 | 1.20 ± 0.50 | -500 |  |  |  |  |  |  |  |  |
| [Co(acac)2 (BCE)]ClO4 [Compound 1] | 893 ± 161 | 14.0 ± 4.3 | 0.42 ± 0.06 | 3.76 ± 1.46 | -308 |  |  |  |  |  |  |  |  |
| [Co(acac)2 (DCE)]ClO4 [Compound 6] | 1.75 ± 0.1 | 48.2 ± 9.0 | 1.33 ± 0.13 | 0.85 ± 0.03 | -232 |  |  |  |  |  |  |  |  |
